Experimental data as given in ChEMBL document CHEMBL5126606, “Sodium-Glucose Cotransporter Inhibitors as Antidiabetic Drugs: Current Development and Future Perspectives” (J Med Chem, 2022).
Values belong to the compound of their own block, whether it stands above or below them.

Tests used:
[1] = biological target: T1, Sodium/glucose cotransporter 2 (Homo sapiens, UniProt P31639); experiment: Inhibition of recombinant human SGLT2 expressed in COS-7 cells assessed as inhibition of [14C]AMG uptake; format: cell-based
T1 sequence (P31639 whole entry): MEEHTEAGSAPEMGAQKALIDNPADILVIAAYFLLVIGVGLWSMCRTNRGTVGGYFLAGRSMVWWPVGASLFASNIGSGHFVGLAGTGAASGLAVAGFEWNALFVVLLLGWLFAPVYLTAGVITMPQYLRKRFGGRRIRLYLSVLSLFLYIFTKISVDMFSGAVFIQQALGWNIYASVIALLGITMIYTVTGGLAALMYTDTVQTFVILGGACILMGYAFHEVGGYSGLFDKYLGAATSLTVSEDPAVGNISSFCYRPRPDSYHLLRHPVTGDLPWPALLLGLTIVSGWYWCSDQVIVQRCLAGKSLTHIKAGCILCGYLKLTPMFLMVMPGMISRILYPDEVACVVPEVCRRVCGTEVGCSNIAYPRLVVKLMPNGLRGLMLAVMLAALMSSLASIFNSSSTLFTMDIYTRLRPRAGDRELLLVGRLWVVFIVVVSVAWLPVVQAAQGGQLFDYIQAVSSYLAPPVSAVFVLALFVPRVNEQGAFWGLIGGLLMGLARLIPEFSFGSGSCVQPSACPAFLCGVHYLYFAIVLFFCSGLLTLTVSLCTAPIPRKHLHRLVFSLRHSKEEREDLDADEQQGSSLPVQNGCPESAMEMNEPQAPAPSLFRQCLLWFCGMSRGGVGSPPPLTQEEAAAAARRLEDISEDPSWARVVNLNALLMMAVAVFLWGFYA

[2] = biological target: T1, Sodium/glucose cotransporter 2; experiment: Inhibition of human SGLT2 expressed in CHO cells assessed as inhibition of [14C] labeled AMG accumulation incubated for 15 mins; format: cell-based
[3] = biological target: T2, Sodium/glucose cotransporter 1 (Homo sapiens, UniProt P13866); experiment: Inhibition of human SGLT1 expressed in CHO cells assessed as inhibition of [14C] labeled AMG accumulation incubated for 15 mins; format: cell-based
T2 sequence (P13866 whole entry): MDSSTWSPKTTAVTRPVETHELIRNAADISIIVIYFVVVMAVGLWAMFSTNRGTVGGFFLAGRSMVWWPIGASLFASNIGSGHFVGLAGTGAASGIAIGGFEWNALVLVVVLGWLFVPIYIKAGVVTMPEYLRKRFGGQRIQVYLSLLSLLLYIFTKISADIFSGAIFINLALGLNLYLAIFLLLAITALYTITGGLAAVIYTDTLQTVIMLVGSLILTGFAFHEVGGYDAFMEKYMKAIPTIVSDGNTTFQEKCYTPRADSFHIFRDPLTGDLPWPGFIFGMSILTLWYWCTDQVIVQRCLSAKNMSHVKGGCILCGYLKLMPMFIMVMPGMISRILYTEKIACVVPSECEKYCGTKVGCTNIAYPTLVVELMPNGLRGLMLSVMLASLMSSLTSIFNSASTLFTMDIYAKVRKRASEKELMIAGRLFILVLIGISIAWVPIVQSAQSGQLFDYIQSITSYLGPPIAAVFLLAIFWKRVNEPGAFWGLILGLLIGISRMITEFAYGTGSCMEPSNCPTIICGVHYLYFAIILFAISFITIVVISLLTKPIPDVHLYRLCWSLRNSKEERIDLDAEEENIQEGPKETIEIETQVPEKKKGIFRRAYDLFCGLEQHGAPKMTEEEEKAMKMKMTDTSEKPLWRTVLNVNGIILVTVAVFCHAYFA

[4] = biological target: T1, Sodium/glucose cotransporter 2; experiment: Inhibition of human SGLT2 expressed in xenopus oocytes assessed as inhibition of [14C]AMG uptake; format: cell-based, Oocyte
[5] = biological target: T2, Sodium/glucose cotransporter 1; experiment: Inhibition of full length N-terminal HA-tagged human SGLT1 expressed in HEK293 cells assessed as inhibition of [14C]AMG uptake; format: cell-based
[6] = biological target: T1, Sodium/glucose cotransporter 2; experiment: Inhibition of full length N-terminal HA-tagged human SGLT2 expressed in HEK293 cells assessed as inhibition of [14C]AMG uptake; format: cell-based
Homo sapiens = organism: Homo sapiens; experiment: Selectivity ratio of IC50 for full length N-terminal HA-tagged human SGLT1 expressed in HEK293 cells to IC50 for full length N-terminal HA-tagged human SGLT2 expressed in HEK293 cells; format: cell-based
[7] = Oral bioavailability in C57BL/6J mouse at 10 mg/kg measured upto 24 hrs by LC-MS/MS analysis; format: ADME, organism-based; details: in vivo
[8] = Half life in C57BL/6J mouse at 10 mg/kg,po measured upto 24 hrs by LC-MS/MS analysis; format: ADME, organism-based; details: in vivo
[9] = biological target: T1, Sodium/glucose cotransporter 2; experiment: Inhibition of human SGLT2 expressed in CHO-K1 cells; format: cell-based
[10] = biological target: T1, Sodium/glucose cotransporter 2; experiment: Inhibition of human SGLT2

EC50 [2]: 455 nM
SMILES: CONC[C@H]1O[C@@H](n2cc(Cc3ccc(C4CC4)cc3)c3c(Cl)cccc32)[C@H](O)[C@@H](O)[C@@H]1O

IC50 [5]: 15.9 nM
IC50 [6]: 2.1 nM
bioavailability [7]: 87%
half-life [8]: 7 h
SMILES: COc1ccc(Cc2cc([C@H]3O[C@@H](SC)[C@H](O)[C@@H](O)[C@@H]3O)ccc2Cl)cc1
Ratio IC50 (Homo sapiens): 7.6

Ki [9]: 151 nM
SMILES: CCOC(=O)OC[C@H]1O[C@@H](Oc2ccccc2Cc2ccc(OC)cc2)[C@H](O)[C@@H](O)[C@@H]1O [SERGLIFLOZIN ETABONATE]

EC50 [2]: 286 nM
SMILES: CO/N=C/[C@H]1O[C@@H](n2cc(Cc3ccc(C4CC4)cc3)c3c(Cl)cccc32)[C@H](O)[C@@H](O)[C@@H]1O

IC50 [10]: 1.8 nM
SMILES: CCOc1ccc(Cc2cc([C@H]3O[C@@H](SC)[C@H](O)[C@@H](O)[C@@H]3O)ccc2Cl)cc1

Second part, the compound before the results:

SMILES: Cc1cc(OCCCNCCC(N)=O)ccc1Cc1c(O[C@@H]2O[C@H](CO)[C@@H](O)[C@H](O)[C@H]2O)n[nH]c1C(C)C
Ki [1]: 13600 nM

SMILES: O/N=C/[C@H]1O[C@@H](n2cc(Cc3ccc(C4CC4)cc3)c3c(Cl)cccc32)[C@H](O)[C@@H](O)[C@@H]1O
EC50 [2]: 212 nM

SMILES: CC(=O)NNC[C@H]1O[C@@H](n2cc(Cc3ccc(C4CC4)cc3)c3c(Cl)cccc32)[C@H](O)[C@@H](O)[C@@H]1O
EC50 [3]: 37 nM
EC50 [2]: 33 nM

SMILES: Cc1cc(O)c(C(=O)CCc2ccc3occc3c2)c(O[C@@H]2O[C@H](CO)[C@@H](O)[C@H](O)[C@H]2O)c1
EC50 [4]: 5.2 nM

SMILES: O=C(N/N=C/[C@H]1O[C@@H](n2cc(Cc3ccc(C4CC4)cc3)c3c(Cl)cccc32)[C@H](O)[C@@H](O)[C@@H]1O)c1ccccc1
EC50 [2]: 258 nM

SMILES: COC(=O)NNC[C@H]1O[C@@H](n2cc(Cc3ccc(C4CC4)cc3)c3c(Cl)cccc32)[C@H](O)[C@@H](O)[C@@H]1O
EC50 [2]: 63 nM
